Molecules are shown by their SMILES.

The test system of experiment [1] is loxapine-induced catalepsy. Nature of the experiment: loxapine-induced catalepsy in rats. It is filed as in vivo. The settings on record: 0.3-3 mg/kg s.c. As to the method:
Kalkman H. O. et al., Br. J. Pharmacol. 124:1550-1556 (1998)] at doses of about 0.3 to about […] s.c.

For experiment [2], the system named is amphetamine induced locomotion. Kind of experiment: amphetamine induced locomotion in rats. The class given is in vivo. As for the experimental part:
The compound or the solvent are administered at t=−30 min.

On to `COc1ccccc1[C@H]1CCN(Cc2ccc3c(c2)OCCO3)C1` [(R)-1-(2,3,-dihydro-benzo-[1,4]dioxin-6-ylmethyl)-3-(2-methoxyphenyl)pyrrolidine], for which the inhibition of catalepsy result in experiment [1] is “long lasting, dose-dependent inhibition of catalepsy”. Moreover, the reduction of locomotion result in experiment [2] (rats, 1, 3 and 10 mg/kg s.c.) was “dose-dependently reduce locomotion”.

With `COc1ccccc1[C@H]1CCN(Cc2ccc(=O)n(C(C)C)c2)C1` [(R)-1-isopropyl-5-[3-(2-methoxyphenyl)pyrrolidin-1-ylmethyl]-1H-pyridin-2-one], in experiment [1], the inhibition of catalepsy entry is “long lasting, dose-dependent inhibition of catalepsy”. In experiment [2] (rats, 0.1, 0.3 and 1 mg/kg s.c.), the reduction of locomotion entry is on record as “dose-dependently reduce locomotion”.

Values taken from US7012085B2, “1,3 disubstituted pyrrolidines as α-2-adrenoceptor antagonists” (Novartis AG, priority 2000, dated 2006).
